From patent US20240082269A1, “METHODS AND PRODUCTS INCLUDING SPECIFIC CANNABINOIDS” (priority 2022, published 2024)

Assay: Four Hempson Oil studies taken together (safety, overall THCV effect)
Type: in vivo, human
Conditions: daily use of 8 mg doses of THCV over 60-180 days
Text: The following pre-clinical and clinical research has shown that small daily oral amounts of Hempson Oil®—a hemp-extract high in cannabidiol (CBD), tetrahydrocannabivarin (THCV), and cannabidivarin (CBDV)—have consistent effects of weight loss, reduction in abdominal girth, blood sugar (HgbA1c) and blood lipid ratios. These comparative examples are shown merely for the effect the active ingredients may have upon metabolic disorders and weight loss.
The Hempson Oil Studies: from 2019 until April 2021, several independent high quality human trials were completed using an oral Hempson® oil in a micellized tincture or non-micellized oil in gel caps. All of the studies were NIH-supported. All studies were double-blind, placebo-controlled, multisite, and randomized effectiveness studies of a hemp extract, known as Hempson® oil that is high in CBD, THCV, and CBDV. The studies used either type II diabetics, obese or healthy adults. The studies done with micellized oil tincture used lower doses with micellized Hempson® oil because of increased the absorption and bioavailability of the cannabinoids.
In each study, subjects were randomly assigned to either the Hempson Oil® group (100 subjects) or the control group (50 subjects). Each subject signed a study consent form. Subjects were instructed to orally ingest this study product once daily. All subjects were instructed not to change their eating, drinking, or exercise habits for the duration of this study.
All of the study results reported below were statistically significant (p<0.05) compared to placebo results.

In the case of `CCCc1cc(O)c2c(c1)OC(C)(C)[C@@H]1CCC(C)=C[C@@H]21` [THCV, tetrahydrocannabivarin], the “A1C blood levels (diabetic measure)” value is reported as “decrease in A1C blood levels”, the Abdominal girth is reported as “decrease of abdominal girth” and the Weight is reported as “statistically significant weight loss”.
